# Read-outs that look alike come from different tables or passages of the source.
# How the values were obtained:
# [1] = target: T1, hCB2R (Homo sapiens, UniProt P34972); assay: biochemical; format: binding
# [2] = target: T2, hCB1R (Homo sapiens, UniProt P21554); assay: biochemical; format: binding
# T2 construct: host or cells: CHO
# [3] = target: T3, mCB1R (Mus musculus, UniProt P47746); assay: biochemical; format: binding
# T3 construct: from tissue; host or cells: brain of male C57BL/6J mice
# [4] = target: T4, hABHD12 (Homo sapiens, UniProt Q8N2K0); assay: ABHD12 activity; format: biochemical; conditions: single point, 10 5 µM [sic]
# T4 construct: expressed in transfected cells
# T4 sequence (Q8N2K0 1-398): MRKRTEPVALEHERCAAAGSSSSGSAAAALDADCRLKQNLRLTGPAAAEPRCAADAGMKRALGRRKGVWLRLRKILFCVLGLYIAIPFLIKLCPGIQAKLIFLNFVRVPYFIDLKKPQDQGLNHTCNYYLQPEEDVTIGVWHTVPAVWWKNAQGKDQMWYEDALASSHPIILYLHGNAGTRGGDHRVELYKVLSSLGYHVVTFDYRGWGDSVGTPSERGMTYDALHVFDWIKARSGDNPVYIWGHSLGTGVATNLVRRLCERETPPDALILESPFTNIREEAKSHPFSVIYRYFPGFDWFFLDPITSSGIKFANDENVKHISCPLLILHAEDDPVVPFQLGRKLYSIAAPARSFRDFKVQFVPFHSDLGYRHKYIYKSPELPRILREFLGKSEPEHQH
# Excerpt: HEK293T cells were obtained from American Type Culture Collection (ATCC, Manassas, VA, USA). Lipofectamine 2000 was obtained from Life Technologies (Carlsbad, CA, USA) and geneticin from InvivoGen. Cell culture medium, FBS, and cell culture supplements were from Invitrogen (Carlsbad, CA, USA). pCMV6-AC-hABHD6 and pCMV6-XL4-hABHD12 were a kind gift from Prof Jarmo T. Laitinen. hABHD12 sequence was subsequently inserted in a pcDNA3.1 plasmid in order to generate a stable cell line. The effect of CB2R ligands on ABHD6 and ABHD12 hydrolytic activity was determined using cell homogenate from hABHD6 and hABHD12 overexpressing HEK293T cells (40 μg total protein per condition). Samples were pre-incubated with the compounds (10 μM in the screening assay and concentrations in the range 1 nM—50 μM for the dose-response curves) in […] (pH=7.6) buffer containing 0.1%(w/v) BSA. DMSO was used as vehicle control and WWL70 10 μM or THL 20 μM as positive controls. [^3H]-2-OG (10 μM final concentration) was added and after incubation of 5 min at 37 °C, the reaction was stopped by the addition of 400 μl of ice-cold CHCl3:MeOH (1:1). The samples were vortex and centrifuged (16,100g 10 min 4 °C). Aliquots (200 μl) of the aqueous phase were assayed for tritium content by liquid scintillation spectroscopy. The values obtained for each measurement were corrected for non-specific hydrolysis (non-ABHD6 mediated) by subtracting the signal obtained in the hydrolysis of [^3H]- 2-OG by non-transfected HEK293T.
# [5] = target: T5, Rat recombinant TRPM8 (Rattus norvegicus, UniProt Q8R455); assay: TRP channel [Ca2+]i assay; format: cell-based; conditions: vs icilin […]; read-out: TRPM8 IC50 for antagonism of icilin
# T5 construct: expressed in transfected cells; host or cells: HEK293 (TRPM8-HEK-293, gift from Mario van der Stelt)
# [6] = target: T6, alpha 1A (h) (Homo sapiens, UniProt P35348); assay: CEREP panel; format: binding; conditions: 10 µM
# T6 construct: CEREP
# T6 sequence (P35348 1-466): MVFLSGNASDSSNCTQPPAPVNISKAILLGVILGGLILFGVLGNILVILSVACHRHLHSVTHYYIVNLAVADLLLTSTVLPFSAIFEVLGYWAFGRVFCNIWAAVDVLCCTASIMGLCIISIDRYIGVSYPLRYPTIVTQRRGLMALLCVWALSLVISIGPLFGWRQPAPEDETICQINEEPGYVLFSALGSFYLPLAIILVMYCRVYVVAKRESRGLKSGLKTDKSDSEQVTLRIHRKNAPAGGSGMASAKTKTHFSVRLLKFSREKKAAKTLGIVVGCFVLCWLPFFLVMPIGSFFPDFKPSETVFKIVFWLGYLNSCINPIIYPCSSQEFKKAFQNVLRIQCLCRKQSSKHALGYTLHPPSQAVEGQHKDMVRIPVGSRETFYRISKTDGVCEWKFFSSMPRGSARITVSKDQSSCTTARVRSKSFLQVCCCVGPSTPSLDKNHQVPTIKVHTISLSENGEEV
# [7] = target: T1, hCB2R; design: expressed in transfected cells; host or cells: Flp-In-293 (Invitrogen #R750-07), pcDNA5/FRT
# [8] = CHO membranes, Leiden, HU210 and SR144528 from Roche
# T3 sequence (P47746 whole entry): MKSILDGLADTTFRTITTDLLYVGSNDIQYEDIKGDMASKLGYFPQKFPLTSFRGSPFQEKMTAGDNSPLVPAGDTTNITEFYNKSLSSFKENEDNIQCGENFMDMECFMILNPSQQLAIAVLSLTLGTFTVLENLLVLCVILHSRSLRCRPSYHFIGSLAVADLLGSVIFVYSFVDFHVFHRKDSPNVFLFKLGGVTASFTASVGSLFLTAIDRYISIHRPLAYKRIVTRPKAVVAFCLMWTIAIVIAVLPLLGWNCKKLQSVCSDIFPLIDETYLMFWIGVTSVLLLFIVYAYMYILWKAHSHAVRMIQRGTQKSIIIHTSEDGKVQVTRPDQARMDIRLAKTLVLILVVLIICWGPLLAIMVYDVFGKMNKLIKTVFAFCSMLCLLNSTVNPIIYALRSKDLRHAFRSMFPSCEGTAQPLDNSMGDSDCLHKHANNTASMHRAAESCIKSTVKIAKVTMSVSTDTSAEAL
# T2 sequence (P21554 whole entry): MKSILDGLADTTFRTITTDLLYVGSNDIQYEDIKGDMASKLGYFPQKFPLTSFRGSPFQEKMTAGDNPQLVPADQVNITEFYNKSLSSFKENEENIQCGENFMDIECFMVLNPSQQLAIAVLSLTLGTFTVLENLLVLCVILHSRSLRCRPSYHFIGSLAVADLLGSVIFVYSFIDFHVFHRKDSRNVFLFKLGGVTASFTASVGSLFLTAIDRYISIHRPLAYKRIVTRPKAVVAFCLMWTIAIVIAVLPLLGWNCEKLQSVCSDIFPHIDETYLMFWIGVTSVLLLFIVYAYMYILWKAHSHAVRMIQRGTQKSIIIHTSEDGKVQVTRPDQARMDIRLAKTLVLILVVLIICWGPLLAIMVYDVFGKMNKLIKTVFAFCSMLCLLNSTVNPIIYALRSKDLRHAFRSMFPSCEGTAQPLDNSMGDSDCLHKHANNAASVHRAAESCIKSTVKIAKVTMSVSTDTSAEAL
# T5 sequence (Q8R455 whole entry): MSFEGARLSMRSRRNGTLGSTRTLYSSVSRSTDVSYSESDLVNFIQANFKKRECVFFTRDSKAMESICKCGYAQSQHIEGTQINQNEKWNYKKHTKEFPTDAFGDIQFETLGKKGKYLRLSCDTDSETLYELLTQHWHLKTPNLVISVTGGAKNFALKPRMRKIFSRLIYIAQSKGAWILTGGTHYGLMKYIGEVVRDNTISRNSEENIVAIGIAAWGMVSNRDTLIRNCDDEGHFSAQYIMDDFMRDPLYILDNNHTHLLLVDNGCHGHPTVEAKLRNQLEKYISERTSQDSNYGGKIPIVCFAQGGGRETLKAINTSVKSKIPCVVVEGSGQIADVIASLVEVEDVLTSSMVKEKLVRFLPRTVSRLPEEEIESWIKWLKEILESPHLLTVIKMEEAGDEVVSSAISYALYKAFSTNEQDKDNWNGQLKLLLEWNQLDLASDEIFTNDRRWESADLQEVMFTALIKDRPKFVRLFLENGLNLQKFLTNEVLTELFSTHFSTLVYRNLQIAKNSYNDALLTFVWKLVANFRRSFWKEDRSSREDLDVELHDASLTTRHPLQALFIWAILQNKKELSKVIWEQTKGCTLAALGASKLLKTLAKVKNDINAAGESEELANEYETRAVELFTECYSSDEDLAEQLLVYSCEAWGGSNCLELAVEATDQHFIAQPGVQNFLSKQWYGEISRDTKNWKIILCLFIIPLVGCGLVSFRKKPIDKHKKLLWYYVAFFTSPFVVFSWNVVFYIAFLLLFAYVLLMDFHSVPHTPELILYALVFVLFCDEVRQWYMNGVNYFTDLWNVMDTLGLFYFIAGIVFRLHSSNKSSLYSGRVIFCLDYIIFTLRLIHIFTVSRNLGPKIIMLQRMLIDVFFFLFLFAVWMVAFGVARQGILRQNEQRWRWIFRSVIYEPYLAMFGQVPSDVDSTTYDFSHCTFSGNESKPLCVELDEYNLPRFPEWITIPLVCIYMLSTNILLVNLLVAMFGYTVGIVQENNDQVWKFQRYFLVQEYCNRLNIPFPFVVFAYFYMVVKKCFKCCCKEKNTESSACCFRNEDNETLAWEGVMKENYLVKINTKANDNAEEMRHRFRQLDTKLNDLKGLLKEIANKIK
# T1 sequence (P34972 whole entry): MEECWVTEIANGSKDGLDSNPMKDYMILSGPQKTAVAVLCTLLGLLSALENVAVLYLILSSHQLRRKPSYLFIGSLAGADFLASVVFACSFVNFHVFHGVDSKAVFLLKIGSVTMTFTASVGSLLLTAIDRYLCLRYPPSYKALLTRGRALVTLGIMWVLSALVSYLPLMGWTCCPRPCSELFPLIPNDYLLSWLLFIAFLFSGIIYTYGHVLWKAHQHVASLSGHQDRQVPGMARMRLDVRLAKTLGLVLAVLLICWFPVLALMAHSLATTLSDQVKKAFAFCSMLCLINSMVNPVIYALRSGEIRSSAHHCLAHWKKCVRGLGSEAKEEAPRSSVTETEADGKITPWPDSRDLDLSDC
structure (smiles),measurement,setting,value
CN1CCCC[C@H]1Cn1cc(C(=O)c2cc([N+](=O)[O-])ccc2I)c2ccccc21 [(S)-AM1241],pKi ± SEM hCB2R,[1]; [8],7.02 ± 0.15
same,pKi ± SEM hCB1R,[2]; [8],< 5
same,pKi ± SEM mCB1R,[3]; mouse brain membranes,6.48 ± 0.08
same,ABHD12 % inhibition,[4],< 25%
same,IC50,[5],> 50 µM
same,% inhibition alpha 1A (h),[6],75%
same,GIRK-GTPγS bias factor (BF),[7]; hCB2R,0.16
same,GIRK-GTPγS ΔΔlogR,[7]; hCB2R,-0.79
same,LogR GIRK,[7]; hCB2R,5.70
same,LogR GTPγS,[7]; hCB2R,6.9
same,LogR pERK,[7]; hCB2R,7.54
same,LogR β-AR,[7]; hCB2R,5.97
same,pERK-GIRK bias factor (BF),[7]; hCB2R,4.72
same,pERK-GIRK ΔΔlogR,[7]; hCB2R,0.68 ± 0.37
same,pERK-GTPγS bias factor (BF),[7]; hCB2R,0.77
same,pERK-GTPγS ΔΔlogR,[7]; hCB2R,-0.11
same,β-AR-GIRK bias factor (BF),[7]; hCB2R,0.43
same,β-AR-GIRK ΔΔlogR,[7]; hCB2R,-0.37 ± 0.33
same,β-AR-GTPγS bias factor (BF),[7]; hCB2R,0.07
same,β-AR-GTPγS ΔΔlogR,[7]; hCB2R,-1.16 ± 0.57
same,β-AR-pERK bias factor (BF),[7]; hCB2R,0.09
same,β-AR-pERK ΔΔlogR,[7]; hCB2R,-1.05 ± 0.44
same,ΔLogR GIRK,"[7]; hCB2R, reference CP55940",-2.17
same,ΔLogR GTPγS,"[7]; hCB2R, reference CP55940",-1.38
same,ΔLogR pERK,"[7]; hCB2R, reference CP55940",-1.49
same,ΔLogR β-AR,"[7]; hCB2R, reference CP55940",-2.54
same,RE GIRK,"[7]; hCB2R, relative effectiveness",0.01
same,RE GTPγS,"[7]; hCB2R, relative effectiveness",0.04
same,RE pERK,"[7]; hCB2R, relative effectiveness",0.03
same,RE β-AR,"[7]; hCB2R, relative effectiveness",0.003
CN1CCCC[C@@H]1Cn1cc(C(=O)c2cc([N+](=O)[O-])ccc2I)c2ccccc21 [(R)-AM1241],"CB2R Selectivity (binding, human)",[1]; 10^(pKi CB2R-pKi CB1R),38 fold
same,pKi ± SEM hCB2R,[1]; [8],8.44 ± 0.25
same,pKi ± SEM hCB1R,[2]; [8],6.86 ± 0.46
same,pKi ± SEM mCB1R,[3]; mouse brain membranes,6.36 ± 0.13
same,ABHD12 % inhibition,[4],< 25%
same,IC50,[5],> 50 µM
same,GIRK-GTPγS bias factor (BF),[7]; hCB2R,0.04
same,GIRK-GTPγS ΔΔlogR,[7]; hCB2R,-1.39
same,LogR GIRK,[7]; hCB2R,5.48
same,LogR GTPγS,[7]; hCB2R,7.3
same,LogR pERK,[7]; hCB2R,8.12
same,LogR β-AR,[7]; hCB2R,7.21
same,pERK-GIRK bias factor (BF),[7]; hCB2R,29.32
same,pERK-GIRK ΔΔlogR,[7]; hCB2R,1.47 ± 0.37
same,pERK-GTPγS bias factor (BF),[7]; hCB2R,1.18
same,pERK-GTPγS ΔΔlogR,[7]; hCB2R,0.07 ± 0.55
same,β-AR-GIRK bias factor (BF),[7]; hCB2R,12.13
same,β-AR-GIRK ΔΔlogR,[7]; hCB2R,1.08 ± 0.36
same,β-AR-GTPγS bias factor (BF),[7]; hCB2R,0.49
same,β-AR-GTPγS ΔΔlogR,[7]; hCB2R,-0.31 ± 0.54
same,β-AR-pERK bias factor (BF),[7]; hCB2R,0.41
same,β-AR-pERK ΔΔlogR,[7]; hCB2R,-0.38 ± 0.39
same,ΔLogR GIRK,"[7]; hCB2R, reference CP55940",-2.38
same,ΔLogR GTPγS,"[7]; hCB2R, reference CP55940",-0.99
same,ΔLogR pERK,"[7]; hCB2R, reference CP55940",-0.91
same,ΔLogR β-AR,"[7]; hCB2R, reference CP55940",-1.30
same,RE GIRK,"[7]; hCB2R, relative effectiveness",0.004
same,RE GTPγS,"[7]; hCB2R, relative effectiveness",0.10
same,RE pERK,"[7]; hCB2R, relative effectiveness",0.12
same,RE β-AR,"[7]; hCB2R, relative effectiveness",0.05
CCCC(C)(C)c1ccc2c(c1)OC(C)(C)[C@@H]1CC=C(C)C[C@@H]21 [JWH133],"CB2R Selectivity (binding, human)",[1],153 fold
same,pKi ± SEM hCB2R,[1],7.18 ± 0.34
same,pKi ± SEM hCB1R,[2],< 5
same,pKi ± SEM mCB1R,[3],6.09 ± 0.13
same,IC50,[5],48.4 ± 3.5 µM
same,% inhibition alpha 1A (h),[6],-5%
same,GIRK-GTPγS bias factor (BF),[7],1.32
same,GIRK-GTPγS ΔΔlogR,[7],0.12 ± 0.57
same,GIRK-cAMP bias factor (BF),[7],3.54
same,GIRK-cAMP ΔΔlogR,[7],0.55 ± 0.42
same,GTPγS-cAMP bias factor (BF),[7],2.67
same,GTPγS-cAMP ΔΔlogR,[7],0.43 ± 0.40
same,LogR GIRK,[7],5.98
same,LogR GTPγS,[7],6.27
same,LogR cAMP,[7],8.28
same,LogR pERK,[7],7.07
same,LogR β-AR,[7],8.02
same,RE GIRK,[7],0.01
same,RE GTPγS,[7],0.01
same,RE cAMP,[7],0.004
same,RE pERK,[7],0.01
same,RE β-AR,[7],0.33
same,pERK-GIRK bias factor (BF),[7],0.84
same,pERK-GIRK ΔΔlogR,[7],-0.08
same,pERK-GTPγS bias factor (BF),[7],1.11
same,pERK-GTPγS ΔΔlogR,[7],0.05 ± 0.46
same,pERK-cAMP bias factor (BF),[7],2.97
same,pERK-cAMP ΔΔlogR,[7],0.47 ± 0.26
same,ΔLogR GIRK,[7],-1.89
same,ΔLogR GTPγS,[7],-2.01
same,ΔLogR cAMP,[7],-2.44
same,ΔLogR pERK,[7],-1.96
same,ΔLogR β-AR,[7],-0.48
same,β-AR-GIRK bias factor (BF),[7],25.53
same,β-AR-GIRK ΔΔlogR,[7],1.41 ± 0.43
same,β-AR-GTPγS bias factor (BF),[7],33.81
same,β-AR-GTPγS ΔΔlogR,[7],1.53 ± 0.41
same,β-AR-cAMP bias factor (BF),[7],90.36
same,β-AR-cAMP ΔΔlogR,[7],1.96 ± 0.15
same,β-AR-pERK bias factor (BF),[7],30.41
same,β-AR-pERK ΔΔlogR,[7],1.48 ± 0.27

# Reference: PMC5216056 (Nature Communications, 2017)
